From the NIST ThermoML archive (doi:10.1021/je900916e)
± gives the expanded uncertainty stated by the source.

Assay: cn = amount concentration of the nth substance listed, in mol/dm3
Conditions: 101 kPa, Liquid, Advanced Conductivity Orion 162A

C[N+](C)(C)C.O=C([O-])C(F)(F)C(F)(F)C(F)(F)C(F)(F)C(F)(F)C(F)(F)C(F)(F)F [tetramethylammonium perfluorooctanoate] + O
Conditions	electrical conductivity [S/m]
288.15 K, c1 = 0.001316	0.00725 ± 2e-05
288.15 K, c1 = 0.002597	0.0135 ± 3e-05
288.15 K, c1 = 0.003846	0.01958 ± 4e-05
288.15 K, c1 = 0.005063	0.0253 ± 5e-05
288.15 K, c1 = 0.00625	0.0306 ± 6e-05
288.15 K, c1 = 0.007407	0.0357 ± 7e-05
288.15 K, c1 = 0.008536	0.0405 ± 8e-05
288.15 K, c1 = 0.009638	0.0451 ± 9e-05
288.15 K, c1 = 0.01071	0.0494 ± 0.0001
288.15 K, c1 = 0.01176	0.0536 ± 0.00011
288.15 K, c1 = 0.01279	0.0574 ± 0.00011
288.15 K, c1 = 0.01379	0.0598 ± 0.00012
288.15 K, c1 = 0.01477	0.0611 ± 0.00012
288.15 K, c1 = 0.01573	0.0622 ± 0.00012
288.15 K, c1 = 0.01704	0.0637 ± 0.00013
288.15 K, c1 = 0.01848	0.0656 ± 0.00013
288.15 K, c1 = 0.02004	0.0675 ± 0.00014
288.15 K, c1 = 0.02171	0.0693 ± 0.00014
288.15 K, c1 = 0.02331	0.0714 ± 0.00014
288.15 K, c1 = 0.02485	0.0732 ± 0.00015
293.15 K, c1 = 0.001316	0.00808 ± 2e-05
293.15 K, c1 = 0.002597	0.01512 ± 3e-05
293.15 K, c1 = 0.003846	0.0218 ± 4e-05
293.15 K, c1 = 0.005063	0.0282 ± 6e-05
293.15 K, c1 = 0.00625	0.0341 ± 7e-05
293.15 K, c1 = 0.007407	0.0401 ± 8e-05
293.15 K, c1 = 0.008537	0.0455 ± 9e-05
293.15 K, c1 = 0.009638	0.0503 ± 0.0001
293.15 K, c1 = 0.01071	0.0551 ± 0.00011
293.15 K, c1 = 0.01176	0.0597 ± 0.00012
293.15 K, c1 = 0.01279	0.0634 ± 0.00013
293.15 K, c1 = 0.01379	0.0657 ± 0.00013
293.15 K, c1 = 0.01477	0.0675 ± 0.00014
293.15 K, c1 = 0.01573	0.0691 ± 0.00014
293.15 K, c1 = 0.01667	0.0706 ± 0.00014
293.15 K, c1 = 0.01803	0.0726 ± 0.00015
293.15 K, c1 = 0.01935	0.0745 ± 0.00015
293.15 K, c1 = 0.02063	0.0764 ± 0.00015
293.15 K, c1 = 0.02187	0.0781 ± 0.00016
293.15 K, c1 = 0.02347	0.0803 ± 0.00016
293.15 K, c1 = 0.025	0.0825 ± 0.00017
298.15 K, c1 = 0.001234	0.0087 ± 2e-05
298.15 K, c1 = 0.002439	0.01642 ± 3e-05
298.15 K, c1 = 0.003614	0.0236 ± 5e-05
298.15 K, c1 = 0.004762	0.0304 ± 6e-05
298.15 K, c1 = 0.005882	0.0371 ± 7e-05
298.15 K, c1 = 0.006977	0.0435 ± 9e-05
298.15 K, c1 = 0.008046	0.0498 ± 0.0001
298.15 K, c1 = 0.009091	0.0554 ± 0.00011
298.15 K, c1 = 0.01011	0.0612 ± 0.00012
298.15 K, c1 = 0.01111	0.0661 ± 0.00013
298.15 K, c1 = 0.01209	0.0713 ± 0.00014
298.15 K, c1 = 0.01304	0.0744 ± 0.00015
298.15 K, c1 = 0.01398	0.0766 ± 0.00015
298.15 K, c1 = 0.01489	0.0785 ± 0.00016
298.15 K, c1 = 0.01579	0.0801 ± 0.00016
298.15 K, c1 = 0.0171	0.0823 ± 0.00016
298.15 K, c1 = 0.01837	0.0844 ± 0.00017
298.15 K, c1 = 0.02	0.087 ± 0.00017
298.15 K, c1 = 0.02157	0.0895 ± 0.00018
298.15 K, c1 = 0.02308	0.092 ± 0.00018
298.15 K, c1 = 0.02453	0.0944 ± 0.00019
298.15 K, c1 = 0.02593	0.0968 ± 0.00019
303.15 K, c1 = 0.001316	0.00997 ± 2e-05
303.15 K, c1 = 0.002597	0.01874 ± 4e-05
303.15 K, c1 = 0.003846	0.0272 ± 5e-05
303.15 K, c1 = 0.005063	0.0352 ± 7e-05
303.15 K, c1 = 0.00625	0.0427 ± 9e-05
303.15 K, c1 = 0.007407	0.0498 ± 0.0001
303.15 K, c1 = 0.008537	0.0566 ± 0.00011
303.15 K, c1 = 0.009638	0.063 ± 0.00013
303.15 K, c1 = 0.01071	0.0691 ± 0.00014
303.15 K, c1 = 0.01176	0.0748 ± 0.00015
303.15 K, c1 = 0.01279	0.0795 ± 0.00016
303.15 K, c1 = 0.01379	0.0823 ± 0.00016
303.15 K, c1 = 0.01477	0.0844 ± 0.00017
303.15 K, c1 = 0.01573	0.0864 ± 0.00017
303.15 K, c1 = 0.01667	0.0884 ± 0.00018
303.15 K, c1 = 0.01803	0.0912 ± 0.00018
303.15 K, c1 = 0.01935	0.0938 ± 0.00019
303.15 K, c1 = 0.02063	0.0964 ± 0.00019
303.15 K, c1 = 0.02187	0.0988 ± 0.0002
303.15 K, c1 = 0.02347	0.1017 ± 0.0002
303.15 K, c1 = 0.025	0.1045 ± 0.00021
308.15 K, c1 = 0.001316	0.01109 ± 2e-05
308.15 K, c1 = 0.002597	0.0209 ± 4e-05
308.15 K, c1 = 0.003846	0.0302 ± 6e-05
308.15 K, c1 = 0.005063	0.0388 ± 8e-05
308.15 K, c1 = 0.00625	0.0475 ± 0.0001
308.15 K, c1 = 0.007407	0.0554 ± 0.00011
308.15 K, c1 = 0.008536	0.0626 ± 0.00013
308.15 K, c1 = 0.009638	0.07 ± 0.00014
308.15 K, c1 = 0.01071	0.077 ± 0.00015
308.15 K, c1 = 0.01176	0.0828 ± 0.00017
308.15 K, c1 = 0.01279	0.0888 ± 0.00018
308.15 K, c1 = 0.01379	0.0918 ± 0.00018
308.15 K, c1 = 0.01477	0.095 ± 0.00019
308.15 K, c1 = 0.01573	0.0969 ± 0.00019
308.15 K, c1 = 0.01667	0.0996 ± 0.0002
308.15 K, c1 = 0.01758	0.101 ± 0.0002
308.15 K, c1 = 0.01848	0.1029 ± 0.00021
308.15 K, c1 = 0.02021	0.1067 ± 0.00021
308.15 K, c1 = 0.02188	0.1102 ± 0.00022
308.15 K, c1 = 0.02347	0.1136 ± 0.00023
308.15 K, c1 = 0.025	0.1168 ± 0.00023
308.15 K, c1 = 0.02647	0.1208 ± 0.00024
313.15 K, c1 = 0.001316	0.01241 ± 3e-05
313.15 K, c1 = 0.002597	0.0231 ± 5e-05
313.15 K, c1 = 0.003846	0.0333 ± 7e-05
313.15 K, c1 = 0.005063	0.0428 ± 9e-05
313.15 K, c1 = 0.00625	0.0521 ± 0.0001
313.15 K, c1 = 0.007407	0.0608 ± 0.00012
313.15 K, c1 = 0.008537	0.0687 ± 0.00014
313.15 K, c1 = 0.009638	0.0765 ± 0.00015
313.15 K, c1 = 0.01071	0.0841 ± 0.00017
313.15 K, c1 = 0.01176	0.0905 ± 0.00018
313.15 K, c1 = 0.01279	0.0971 ± 0.00019
313.15 K, c1 = 0.01379	0.1009 ± 0.0002
313.15 K, c1 = 0.01477	0.1039 ± 0.00021
313.15 K, c1 = 0.01573	0.1067 ± 0.00021
313.15 K, c1 = 0.01667	0.1091 ± 0.00022
313.15 K, c1 = 0.01803	0.1125 ± 0.00023
313.15 K, c1 = 0.01935	0.1158 ± 0.00023
313.15 K, c1 = 0.02063	0.119 ± 0.00024
313.15 K, c1 = 0.02187	0.122 ± 0.00024
313.15 K, c1 = 0.02347	0.1258 ± 0.00025
313.15 K, c1 = 0.025	0.1294 ± 0.00026
318.15 K, c1 = 0.001316	0.01322 ± 3e-05
318.15 K, c1 = 0.002597	0.0253 ± 5e-05
318.15 K, c1 = 0.003846	0.0367 ± 7e-05
318.15 K, c1 = 0.005063	0.0466 ± 9e-05
318.15 K, c1 = 0.00625	0.0564 ± 0.00011
318.15 K, c1 = 0.007407	0.0659 ± 0.00013
318.15 K, c1 = 0.008536	0.0745 ± 0.00015
318.15 K, c1 = 0.009638	0.0838 ± 0.00017
318.15 K, c1 = 0.01071	0.0921 ± 0.00018
318.15 K, c1 = 0.01176	0.0993 ± 0.0002
318.15 K, c1 = 0.01279	0.1064 ± 0.00021
318.15 K, c1 = 0.01379	0.1119 ± 0.00022
318.15 K, c1 = 0.01477	0.1156 ± 0.00023
318.15 K, c1 = 0.01573	0.1188 ± 0.00024
318.15 K, c1 = 0.01667	0.1218 ± 0.00024
318.15 K, c1 = 0.01803	0.1263 ± 0.00025
318.15 K, c1 = 0.01935	0.1307 ± 0.00026
318.15 K, c1 = 0.02105	0.1349 ± 0.00027
318.15 K, c1 = 0.02268	0.14 ± 0.00028
318.15 K, c1 = 0.02424	0.1434 ± 0.00029
318.15 K, c1 = 0.02574	0.1473 ± 0.00029
